According to patent US11713306B2, “5-substituted difluoropiperidine compounds with blood-brain barrier penetrable capability” (Wayshine Biopharm Holding Limited, priority 2018, dated 2023):

Molecular target: FYN (Homo sapiens (Human), UniProt P06241)
Assay: Kinase inhibition assay (Caliper, FAM-labeled peptide substrate)
Type: biochemical
Method: 2.5 times of the kinase (VEGFR2 or EGFR or FYN) buffer solution was added to the compound diluted in equal concentration in the 384-well plate and incubated at 22-27° C. for 10 minutes, then 2.5 times of the FAM-labeled peptide substrate and ATP buffer solution were added therein and incubated at 28° C., and then the stop buffer solution was added to stop the reaction. The data was read by Caliper and the following formula was used to calculate the IC50 inhibition: Percent inhibition=(max-conversion)/(max-min)*100. Staurosporine was used as a control. In kinase inhibition assays, some of the compounds of the present invention are effective in inhibiting VEGFR2/FYN/EGFR, so they have the potential for treating or preventing cancer or central nervous system diseases (Table 1).

FYN, sequence (P06241 whole entry): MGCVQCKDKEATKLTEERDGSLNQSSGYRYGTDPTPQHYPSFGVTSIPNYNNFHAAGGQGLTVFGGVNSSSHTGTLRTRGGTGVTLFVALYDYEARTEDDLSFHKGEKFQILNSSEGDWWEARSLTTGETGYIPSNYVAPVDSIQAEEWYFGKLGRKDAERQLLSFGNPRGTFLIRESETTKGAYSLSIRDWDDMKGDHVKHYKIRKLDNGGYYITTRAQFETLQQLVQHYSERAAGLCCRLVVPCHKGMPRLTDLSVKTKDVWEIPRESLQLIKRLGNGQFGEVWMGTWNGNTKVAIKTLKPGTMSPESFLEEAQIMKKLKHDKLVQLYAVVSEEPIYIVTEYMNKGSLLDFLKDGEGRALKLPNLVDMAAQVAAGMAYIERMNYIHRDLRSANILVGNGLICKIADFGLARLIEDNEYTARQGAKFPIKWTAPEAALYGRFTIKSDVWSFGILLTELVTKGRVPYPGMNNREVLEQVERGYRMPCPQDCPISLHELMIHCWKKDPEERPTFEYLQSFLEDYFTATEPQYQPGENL

SMILES | IC50 [µM]
COc1cc(OC2CCN(C3COC3)CC2(F)F)c2c(Nc3c(F)ccc4c3OCO4)ncnc2c1 (racemic) [Compound 13, (R/S)-5-((3,3-difluoro-1-(oxetane-3-yl)piperidin-4-yl)oxy)-N-(5-fluorobenzo[d][1,3]dioxolcyclopenten-4-yl)-7-methoxyquinazolin-4-amine] | < 0.1
CCOc1cc(OC2CCN(C)CC2(F)F)c2c(Nc3c(F)ccc4c3OCO4)ncnc2c1 (racemic) [Compound 6, (R/S)—N-(5-fluorobenzo[d][1,3]dioxolcyclopenten-4-yl)-5-((3,3-difluoro-1-methylpiperidin-4-yl)oxy)-7-ethoxyquinazolin-4-amine] | < 0.1
COc1cc(O[C@@H]2CCN(C)CC2(F)F)c2c(Nc3c(F)ccc4c3OCO4)ncnc2c1 [Compound 21, (R)—N-(5-fluorobenzo[d][1,3]dioxolcyclopenten-4-yl)-5-((3,3-difluoro-1-methylpiperidin-4-yl)oxy)-7-methoxyquinazolin-4-amine] | < 0.1
CCOc1cc(O[C@@H]2CCN(C)CC2(F)F)c2c(Nc3c(Cl)ccc4c3OCO4)ncnc2c1 [Compound 25, (R)—N-(5-chlorobenzo[d][1,3]dioxolcyclopenten-4-yl)-5-((3,3-difluoro-1-methylpiperidin-4-yl)oxy)-7-ethoxyquinazolin-4-amine] | < 0.1
COc1cc(O[C@@H]2CCN(C)CC2(F)F)c2c(Nc3cc(OC)c(Cl)cc3F)ncnc2c1 [Compound 24, (R)—N-(4-chloro-2-fluoro-5-methoxyphenyl)-5-((3,3-difluoro-1-methylpiperidin-4-yl)oxy)-7-methoxyquinazolin-4-amine] | < 0.1
COc1cc(OC2CCN(C)CC2(F)F)c2c(Nc3c(Cl)ccc4c3OCO4)ncnc2c1 (racemic) [Compound 4, (R/S)—N-(5-chlorobenzo[d][1,3]dioxolcyclopenten-4-yl)-5-((3,3-difluoro-1-methylpiperidin-4-yl)oxy)-7-methoxyquinazolin-4-amine] | < 0.1
COc1cc(O[C@@H]2CCN(C)CC2(F)F)c2c(Nc3c(Cl)ccc4c3OCO4)ncnc2c1 [Compound 20, (R)—N-(5-chlorobenzo[d][1,3]dioxolcyclopenten-4-yl)-5-((3,3-difluoro-1-methylpiperidin-4-yl)oxy)-7-methoxyquinazolin-4-amine] | < 0.1
COc1cc(O[C@@H]2CCN(C)CC2(F)F)c2c(Nc3c(F)ccc4c3OCO4)ncnc2c1 [Compound 23, (R)—N-(5-fluorobenzo[d][1,3]dioxolcyclopenten-4-yl)-5-((3,3-difluoro-1-methylpiperidin-4-yl)oxy)-7-deuterated methoxyquinazolin-4-amine] | < 0.1
CCOc1cc(OC2CCN(C)CC2(F)F)c2c(Nc3c(Cl)ccc4c3OCO4)ncnc2c1 (racemic) [Compound 9, (R/S)—N-(5-chlorobenzo[d][1,3]dioxolcyclopenten-4-yl)-5-((3,3-difluoro-1-methylpiperidin-4-yl)oxy)-7-ethoxyquinazolin-4-amine] | < 0.1
CCN1CC[C@@H](Oc2cc(OC)cc3ncnc(Nc4c(F)ccc5c4OCO5)c23)C(F)(F)C1 [Compound 26, (R)-5-((1-ethyl-3,3-difluoropiperidin-4-yl)oxy)-N-(5-fluorobenzo[d] [1,3]dioxolcyclopenten-4-yl)-7-methoxyquinazolin-4-amine] | < 0.1
COc1cc(OC2CCN(C)CC2(F)F)c2c(Nc3c(F)ccc4c3OCO4)ncnc2c1 (racemic) [Compound 7, (R/S)—N-(5-fluorobenzo[d][1,3]dioxolcyclopenten-4-yl)-5-((3,3-difluoro-1-methylpiperidin-4-yl)oxy)-7-deuterated methoxyquinazolin-4-amine] | < 0.1
CCOc1cc(O[C@@H]2CCN(C)CC2(F)F)c2c(Nc3c(F)ccc4c3OCO4)ncnc2c1 [Compound 22, (R)—N-(5-fluorobenzo[d][1,3]dioxolcyclopenten-4-yl)-5-((3,3-difluoro-1-methylpiperidin-4-yl)oxy)-7-ethoxyquinazolin-4-amine] | < 0.1

Second part, the molecule after the results:

IC50 [µM] | SMILES
< 0.1 | COc1cc(O[C@H]2CCN(C3COC3)CC2(F)F)c2c(Nc3c(F)ccc4c3OCO4)ncnc2c1 [Compound 45, (S)-5-((3,3-difluoro-1-(oxetane-3-yl)piperidin-4-yl)oxy)-N-(5-fluorobenzo[d] [1,3]dioxolcyclopenten-4-yl)-7-methoxyquinazolin-4-amine]
< 0.1 | COc1cc(O[C@H]2CCN(C)CC2(F)F)c2c(Nc3cc(OC)c(Cl)cc3F)ncnc2c1 [Compound 40, (S)—N-(4-chloro-2-fluoro-5-methoxyphenyl)-5-((3,3-difluoro-1-methylpiperidin-4-yl)oxy)-7-methoxyquinazolin-4-amine]
< 0.1 | COc1cc(O[C@H]2CCN(C(C)C)CC2(F)F)c2c(Nc3c(F)ccc4c3OCO4)ncnc2c1 [Compound 47, (S)-5-((3,3-difluoro-1-isopropylpiperidin-4-yl)oxy)-N-(5-fluorobenzo[d][1,3]dioxolcyclopenten-4-yl)-7-methoxyquinazolin-4-amine]
< 0.1 | COc1cc(O[C@@H]2CCN(C3COC3)CC2(F)F)c2c(Nc3c(F)ccc4c3OCO4)ncnc2c1 [Compound 29, (R)-5-((3,3-difluoro-1-(oxetane-3-yl)piperidin-4-yl)oxy)-N-(5-fluorobenzo[d] [1,3]dioxolcyclopenten-4-yl)-7-methoxyquinazolin-4-amine]
< 0.1 | COc1cc(O[C@@H]2CCN(C(C)C)CC2(F)F)c2c(Nc3c(F)ccc4c3OCO4)ncnc2c1 [Compound 31, (R)-5-((3,3-difluoro-1-isopropylpiperidin-4-yl)oxy)-N-(5-fluorobenzo[d] [1,3]dioxolcyclopenten-4-yl)-7-methoxyquinazolin-4-amine]
< 0.1 | COc1cc(O[C@H]2CCN(C)CC2(F)F)c2c(Nc3c(F)ccc4c3OCO4)ncnc2c1 [Compound 37, (S)—N-(5-fluorobenzo[d][1,3]dioxolcyclopenten-4-yl)-5-((3,3-difluoro-1-methylpiperidin-4-yl)oxy)-7-methoxyquinazolin-4-amine]
< 0.1 | CCOc1cc(O[C@H]2CCN(C)CC2(F)F)c2c(Nc3c(F)ccc4c3OCO4)ncnc2c1 [Compound 38, (S)—N-(5-fluorobenzo[d][1,3]dioxolcyclopenten-4-yl)-5-((3,3-difluoro-1-methylpiperidin-4-yl)oxy)-7-ethoxyquinazolin-4-amine]
< 0.1 | COc1cc(O[C@H]2CCN(C)CC2(F)F)c2c(Nc3c(Cl)ccc4c3OCO4)ncnc2c1 [Compound 36, (S)—N-(5-chlorobenzo[d][1,3]dioxolcyclopenten-4-yl)-5-((3,3-difluoro-1-methylpiperidin-4-yl)oxy)-7-methoxyquinazolin-4-amine]
< 0.1 | COc1cc(O[C@H]2CCN(C)CC2(F)F)c2c(Nc3c(F)ccc4c3OCO4)ncnc2c1 [Compound 39, (S)—N-(5-fluorobenzo[d][1,3]dioxolcyclopenten-4-yl)-5-((3,3-difluoro-1-methylpiperidin-4-yl)oxy)-7-deuterated methoxyquinazolin-4-amine]
< 0.1 | CCOc1cc(O[C@H]2CCN(C)CC2(F)F)c2c(Nc3c(Cl)ccc4c3OCO4)ncnc2c1 [Compound 41, (S)—N-(5-chlorobenzo[d][1,3]dioxolcyclopenten-4-yl)-5-((3,3-difluoro-1-methylpiperidin-4-yl)oxy)-7-ethoxyquinazolin-4-amine]
